According to publication PMC4010497, “Synthesis and Evaluation of Fluorine-Substituted Phenyl Acetate Derivatives as Ultra-Short Recovery Sedative/Hypnotic Agents” (PLoS ONE, 2014):
Read-outs that look alike come from different tables or passages of the source.

How the values were obtained:
rat [1] = assay: Therapeutic index (LD50/HD50) in rat; type: in vivo
Procedure: (§1) The LD50 was determined in mice, rats, and rabbits and the TI was calculated as LD50/HD50.

rabbits [2] = assay: Hypnotic potency and recovery after IV bolus in rabbits; type: in vivo, rabbit; settings: for Duration of LORR / Time to walk: 2× HD50 dose, mean ± SD; for HD50: IV, 95% confidence limits
Procedure: (§2) All tests were performed during the light period. Groups of mice, rats and rabbits were injected intravenously (lateral tail vein) over 10 s with each dose of test compound, placed in separate boxes to reduce external stimuli and assessed for the loss of righting reflex. Dosing was performed using mg/kg scheme. A set of dose levels was chosen, and depending on whether the loss of righting reflex was observed, extra doses were introduced to provide data for the loss of righting reflex over a narrow dose range to allow potency calculations.
Immediately following the injection, the mice, rats and rabbits were tested for loss of righting reflex. […] Once a loss was observed, the interval between the loss of righting reflex and the return to righting reflex was recorded. […] To compare the duration of LORR of each compound at equipotent doses, groups of mice, rats and rabbits were injected with each compound at 2× HD50 over 10 s.
(§3) Time to walk was the time required after righting before mice and rabbits walked from the center to the periphery of a 30-cm diameter dise.

mice [3] = assay: animal or person; type: in vivo; settings: for ED50: Mus musculus
Procedure: as §2, with “calculations. From the percentage of mice, rats and rabbits in each group showing loss of righting reflex for ≥30 s, a probit analysis (SAS Institute) was performed to obtain an HD50 for each compound with 95% confidence limits.” for “calculations.”
(§4) Immediately following the injection, the mice, rats and rabbits were tested for loss of righting reflex. […] Once a loss was observed, the interval between the loss of righting reflex and the return to righting reflex was recorded. The anesthetized animals recovered righting reflexes spontaneously. To compare the duration of LORR of each compound at equipotent doses, groups of mice, rats and rabbits were injected with each compound at 2× HD50 over 10 s.
as §3
(§5) The rotarod test was conducted to evaluate the recovery to the motor coordination. Before the LORR test, mice were trained for 2 consecutive days. Trained mice could maintain their balance on rod for more than 2 mins. After the mice could walk from the center to the periphery of a 30-cm diameter dise, they were put on the rotarod. Mice were classified as behavioral recovery when, on being placed on the rod, they could maintain their balance for 20 s. The time to behavioral recovery was the time required after mice walked from the centre to the periphery of a 30-cm diameter disc before they could maintain their balance on rod for 20 s.

[4] = In vitro metabolic half-life in human whole blood; type: in vitro ADME; settings: male, Human (n = 4), 37°C, read-out: Mean t1/2 Value
Procedure: (§6) Human whole blood stability experiments were conducted in whole blood from four human donors (male, 18–25 years). Single experiments were conducted with pooled blood from Sprague-Dawley rats (male, 8 weeks, n = 3), New Zealand White rabbits (male, 8–10 weeks, n = 3), Beagle dogs (male, 2–3 years, n = 3) and Cynomolgus monkeys (male, 3–4 years, n = 3). All the blood samples were provided by Xuzhou Medical College. A 1.35-ml aliquot of blood was warmed at 37°C for 5 min and hypnotic (from a 40 mM stock in DMSO solution) was added to a final concentration of 200 µM. After the specified incubation time, a 150-µl sample was removed and the metabolic reaction was quenched using 150-µl acetonitrile. Zero time-point samples were prepared by adding 150-µl acetonitrile (using a 4 mM stock in DMSO) to 150-µl blood before addition of the hypnotic. The quenched samples were centrifuged, and the supernatant was separated and stored at −20°C until analyzed. Hypnotic concentrations in thawed samples were determined by high-performance liquid chromatography using a 3-µm phenyl 4.6×50-mm C-A-25, ACE column with the UV detector set at 240 nm. […] The lower limit of quantitation of this assay is 3 µM and the accuracy within 15% at 10 µM. The metabolic half-lives were quantified from the incubation time-dependent change in drug concentration.

[5] = In vitro metabolic half-life in rat whole blood; type: in vitro ADME; settings: male, Sprague-Dawley Rat (n = 3), 37°C, read-out: Mean t1/2 Value
Procedure: as §6

rat [6] = type: in vivo; settings: for HD50: IV, 95% confidence limits
Procedure: as §2, with “calculations. From the percentage of mice, rats and rabbits in each group showing loss of righting reflex for ≥30 s, a probit analysis (SAS Institute) was performed to obtain an HD50 for each compound with 95% confidence limits.” for “calculations.”
as §4, §3, §5

[7] = In vitro metabolic half-life in dog whole blood; type: in vitro ADME, Beagle dog; settings: male; whole blood, Beagle dog (n = 3), 37°C, 200 µM; read-out: Mean t1/2 Value
Procedure: Human whole blood stability experiments were conducted in whole blood from four human donors (male, 18–25 years). Single experiments were conducted with pooled blood from Sprague-Dawley rats (male, 8 weeks, n = 3), New Zealand White rabbits (male, 8–10 weeks, n = 3), Beagle dogs (male, 2–3 years, n = 3) and Cynomolgus monkeys (male, 3–4 years, n = 3). All the blood samples were provided by Xuzhou Medical College. A 1.35-ml aliquot of blood was warmed at 37°C for 5 min and hypnotic (from a 40 mM stock in DMSO solution) was added to a final concentration of 200 µM. After the specified incubation time, a 150-µl sample was removed and the metabolic reaction was quenched using 150-µl acetonitrile. Zero time-point samples were prepared by adding 150-µl acetonitrile (using a 4 mM stock in DMSO) to 150-µl blood before addition of the hypnotic. The quenched samples were centrifuged, and the supernatant was separated and stored at −20°C until analyzed. Hypnotic concentrations in thawed samples were determined by high-performance liquid chromatography using a 3-µm phenyl 4.6×50-mm C-A-25, ACE column with the UV detector set at 240 nm. A linear gradient 20–45% acetonitrile in water with 0.05% trifluoroacetic acid was run for more than 20 min at a flow rate of 1 ml/min. The lower limit of quantitation of this assay is 3 µM and the accuracy within 15% at 10 µM. The metabolic half-lives were quantified from the incubation time-dependent change in drug concentration.

rabbits [8] = assay: Hypnosis in response to IV infusion in rabbits; type: in vivo, rabbit; settings: for time to walk after infusion: 20-min IV infusion; for duration of LORR after cessation of infusion: 20-min IV infusion at half the HD50 per min after 2× HD50 induction
Procedure: Induction of hypnosis in rabbits was achieved using 2× HD50 dose of test compound, and immediately after induction, infusion via the tail vein was commenced at half the HD50 dosage per min. the infusion rate was maintained for 20 min or 1 h or 3 h later. The depth of hypnosis was monitored by the magnitude of a withdrawal reflex to intermittent paw pinch provided by a pair of forceps.

GABAA receptor = assay: GABAA radioligand binding assay ([3H]EBOB); settings: 50 µM compound, 0.5 nM [3H]EBOB, rat frontoparietal cortex
Procedure: All the new compounds were dissolved in 5% DMSO.
Specific binding was determined in the presence of compounds.
Membrane suspensions were thawed and centrifuged in incubation buffer at 10,000×g for 10 min and washed by a similar centrifugation. For displacement studies, membrane suspensions (5 mg original wet wt./ml) were incubated with 0.5 nM [^3H]EBOB ([…], Perkin Elmer Life Sciences, Boston, MA, USA) in the absence or presence of 50 µM of new compounds or reference drug for 2 h at 25°C. Nonspecific binding was determined in the presence of 10 µM Bicuculline. Bicuculline and picrotoxin were frequently used to determine the nonspecific binding when [3H]EBOB as radioligand [17]. Triplicate 1 ml samples were filtered on Whatman GF/B filters under vacuum with a Brandel Harvester and washed with 3×3 ml ice-cold buffer.

[9] = In vitro metabolic half-life in monkey whole blood; type: in vitro ADME; settings: male, Cynomolgus monkey (n = 3), 37°C, read-out: Mean t1/2 Value
Procedure: as §6

[10] = In vitro metabolic half-life in rabbit whole blood; type: in vitro ADME; settings: male, New Zealand White rabbit (n = 3), 37°C, read-out: Mean t1/2 Value
Procedure: as §6

in vivo = settings: mouse, in vivo; mice, 95% confidence limits
Procedure: as §1

mice [11] = assay: in vivo; settings: LD50/HD50
Procedure: as §1

[12] = target: T1, human GABAA receptor α1, β2 and γ2 (CHO-K1 cells) (Homo sapiens, UniProt P14867+P18507+P47870); parameters: method as in PMID 22531340; settings: GABAA receptor electrophysiology; cited from earlier work
T1 construct: expressed in transfected cells; host or cells: CHO-K1 cells, stably transfected
T1 sequence (P14867 28-456): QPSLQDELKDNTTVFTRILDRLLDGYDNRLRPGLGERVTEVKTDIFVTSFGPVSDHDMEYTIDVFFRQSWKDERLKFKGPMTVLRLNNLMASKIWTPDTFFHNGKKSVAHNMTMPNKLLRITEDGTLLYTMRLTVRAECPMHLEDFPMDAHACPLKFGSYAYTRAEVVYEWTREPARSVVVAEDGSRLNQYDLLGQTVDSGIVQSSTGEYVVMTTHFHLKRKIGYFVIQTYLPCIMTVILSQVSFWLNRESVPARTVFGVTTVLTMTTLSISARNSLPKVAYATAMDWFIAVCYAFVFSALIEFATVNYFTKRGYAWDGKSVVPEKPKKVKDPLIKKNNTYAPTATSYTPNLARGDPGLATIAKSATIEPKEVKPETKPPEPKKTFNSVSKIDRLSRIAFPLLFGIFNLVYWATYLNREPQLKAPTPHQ
T1 sequence (P47870 25-512 limits assumed): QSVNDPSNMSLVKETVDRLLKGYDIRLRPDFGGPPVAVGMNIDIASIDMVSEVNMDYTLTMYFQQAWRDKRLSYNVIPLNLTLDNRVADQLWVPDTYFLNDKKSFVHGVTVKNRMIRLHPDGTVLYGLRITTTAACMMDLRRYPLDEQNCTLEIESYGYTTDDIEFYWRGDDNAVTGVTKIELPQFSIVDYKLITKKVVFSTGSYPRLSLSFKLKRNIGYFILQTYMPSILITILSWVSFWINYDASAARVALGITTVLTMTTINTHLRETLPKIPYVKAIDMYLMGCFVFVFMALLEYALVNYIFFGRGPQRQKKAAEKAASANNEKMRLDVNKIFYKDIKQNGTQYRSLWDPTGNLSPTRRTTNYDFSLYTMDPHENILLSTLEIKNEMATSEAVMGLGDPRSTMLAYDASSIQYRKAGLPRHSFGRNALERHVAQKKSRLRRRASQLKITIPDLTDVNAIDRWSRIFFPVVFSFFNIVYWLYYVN
T1 sequence (P18507 40-475): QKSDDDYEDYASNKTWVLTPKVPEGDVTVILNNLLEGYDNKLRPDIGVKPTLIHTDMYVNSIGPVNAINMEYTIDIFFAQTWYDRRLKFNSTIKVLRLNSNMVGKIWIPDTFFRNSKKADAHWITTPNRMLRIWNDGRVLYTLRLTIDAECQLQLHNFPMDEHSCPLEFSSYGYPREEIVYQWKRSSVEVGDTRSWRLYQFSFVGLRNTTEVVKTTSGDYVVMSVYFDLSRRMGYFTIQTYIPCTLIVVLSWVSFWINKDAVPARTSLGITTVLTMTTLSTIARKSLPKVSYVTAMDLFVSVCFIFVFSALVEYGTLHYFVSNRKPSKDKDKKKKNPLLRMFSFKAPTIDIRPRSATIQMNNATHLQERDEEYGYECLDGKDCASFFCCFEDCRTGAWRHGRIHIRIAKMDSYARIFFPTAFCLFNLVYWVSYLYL

[13] = Octanol:water partition coefficient; type: physicochemical; settings: water buffered with 10 mm Tris (pH 7.4)
Procedure: One mg of each hypnotic was added to 10 ml of water buffered with 10 mm Tris (pH 7.4) and 1 ml of octanol. The mixture was stirred overnight and then centrifuged to fully separate the organic and aqueous phases. The relative hypnotic concentration in each phase (i.e., the partition coefficient) was determined by high-performance liquid chromatography as described for blood.

rabbits [14] = assay: Therapeutic index (LD50/HD50) in rabbits; type: in vivo, rabbit
Procedure: as §1

[15] = target: T1, human GABAA receptor α1, β2 and γ2 (CHO-K1 cells); assay: cell-based
Procedure: Chinese hamster ovary (CHO)-K1 cells transfected stably with human GABAA receptor α1, β2 and γ2 subunit cDNAs were used. The cells were plated onto collagen-coated 35-mm cell culture dishes at low density for 1–7 days before recording. Test solutions were prepared in the extracellular solution on the day the patch-clamp assay was performed. The intracellular solution consisted of 22 mM KCl, 110 mM K-aspartate, 8 mM NaCl, 1 mM MgCl2, 1 mM CaCl2, 10 mM ethylene glycol tetraacetic acid, 5 mM Na2ATP, 10 mM hydroxyethyl piperazineethanesulfonic acid (HEPES) (adjusted to pH 7.2 using KOH), while the extracellular solution contained 145 mM NaCl, 4 mM KCl, 2 mM CaCl2, 2 mM MgCl2, 10 mM HEPES (adjusted to pH 7.4 using NaOH). The assay was performed at room temperature. Cells were maintained at −70 mV and the potentiation effect was assessed by co-application of the test compound with EC20 of muscimol after the cell was pre-incubated with the test compound for 45 s. GABA EC20 measured individually in each cell. The amplitude of the Cl− current in response to muscimol and/or test compound was determined. The response to the co-application of the test compound and muscimol was normalized to the control muscimol response as a percentage of the control. A potentiation effect was indicated by a value >100% of the control response. EC50 values were calculated using the four parameter logistic equation, where E was the amplitude of the muscimol-induced current in the presence of the anesthetic at concentration [A], EMAX was the amplitude of the response in the presence of a maximally effective concentration of the anesthetic, EC50 was the concentration of anesthetic producing a half-maximal enhancement of the muscimol-induced response and nH was the Hill coefficient. [drawing 1]

[16] = mice, IV over 10 s, 95% confidence limits, read-out: HD50 (the source's name)
[17] = mice, IV 2× HD50, mean ± SD (n = 10)

SMILES	TI (rat [1])	Duration of LORR (rabbits [2]) [s]	Time to walk (rabbits [2]) [s]	HD50 (rabbits [2])	ED50 (mice [3]; [16]) [mg/kg]	Time to walk (mice [3]; mice, 2× HD50) [s]	time to behavioral recovery (mice [3]; mice, 2× HD50, rotarod) [s]	Duration of LORR (mice [3]; [17]) [s]	Onset time (mice [3]; mice, IV, mean ± SD (n = 10)) [s]	Duration of LORR (rat [6]; 2× HD50 dose, mean ± SD) [s]	Time to walk (rat [6]; 2× HD50 dose, mean ± SD) [s]	time to behavioral recovery (rat [6]; 2× HD50 dose, mean ± SD) [s]	HD50 (rat [6])	time to walk after infusion (rabbits [8]) [s]	duration of LORR after cessation of infusion (rabbits [8]) [s]	GABAA binding (50 µmol) (Mean ± SD), percentage of inhibition (GABAA receptor) [%]	LD50 (in vivo) [mg/kg]	TI (mice [11])	Octanol:Water Partition (Coefficient ± SD) [13]	TI (rabbits [14])	other results
CCCOC(=O)Cc1ccc(OCC(=O)N(CC)CC)c(OCC)c1 [AZD3043, reference compound]	10.1	221.6 ± 38.8	89.6 ± 7.6	4.8 (4.6∼5.6) mg/kg	17.6	36.7 ± 6.4	65.5 ± 14.1	63.8 ± 8.5	5.6 ± 1.2	74.2 ± 10.5	38.4 ± 9.6	56.9 ± 12.5	8.2 (7.7∼9.8) mg/kg	46.3 ± 11.2	135.6 ± 66.7	83.2±7.4	98.4	6.0	466±54	15.6	half-life at 200 µM [4]: 28.6 ± 6.2 min; half-life at 200 µM [5]: 0.6 ± 0.1 min; half-life at 200 µM [7]: > 60 min; half-life at 200 µM [9]: 56.7 ± 11.9 min; half-life at 200 µM [10]: 14.8 ± 3.3 min; EC50 [12]: 36 µM
CCCOC(=O)Cc1ccc(OCC(=O)N(CC)CC)c(OC)c1 [Propanidid]	9.6	265.4 ± 44.2	124.5 ± 24.8	5.1 (4.7∼5.7) mg/kg	20.9	56.3 ± 23.5	83.9 ± 17.1	89.6 ± 18.2	6.7 ± 0.5	93.3 ± 16.1	58.7 ± 18.8	79.9 ± 34.6	8.4 (7.8∼10.4) mg/kg	70.2 ± 14.9	246.6 ± 65.7	70.2±5.8	119	5.6	394±40	14.7	EC50 ([15]; GABAA (α1β2γ2) CHO-K1 cell, patch clamp, read-out: EC50, potentiation of EC20 muscimol evoked chloride currents): 25.2 µM
CC(C)c1cccc(C(C)C)c1O [Propofol]	5.9	326.6 ± 48.3	425.3 ± 162.3	3.2 (2.3∼4.2) mg/kg									5.2 (4.5∼5.7) mg/kg	167.9 ± 60.8	485.6 ± 164.1		64.4				ED50 (mice [3]; iv, read-out: HD50): 11.9 mg/kg; Time to walk (mice [3]; mouse, in vivo): 76.5 ± 42.5 s; time to behavioral recovery (mice [3]; mouse, in vivo): 242.7 ± 119.2 s; Duration of LORR (mice [3]; mouse, in vivo, iv): 240.9 ± 93.7 s; Onset time (mice [3]; mouse, in vivo, iv): 8.1 ± 1.6 s; Duration of LORR (rat [6]; in vivo): 349.3 ± 93.3 s; Time to walk (rat [6]; in vivo): 286.5 ± 86.5 s; time to behavioral recovery (rat [6]; in vivo): 335.8 ± 156.9 s; EC50 [15]: 2.4 µM
